In the assay the target is lysine residues on bovine serum albumin (Bos taurus, UniProt P02769). The assay can be described thus: Protein crosslinking method (reactivity with lysine residues). The class given is biochemical. The note with it: 30 mM working concentration, 70° C., BSA 10 mg/mL; among standard reference materials. Here is the method:
Selected active carbonyl compounds (glycolaldehyde, glyoxal, methyl glyoxal, and other carbonyls) were compared for their protein crosslinking capability. Standard reference materials were purchased from Sigma Aldrich [Glycolaldehyde (material no. G6805-5G, batch no. STBG0623V), Glyoxal (material no. 128465-500G, batch no. STBH8032), Methylglyoxal (material no. M0252-250 ml, batch no. BCBT1161), and other carbonyl (material no. F8775-500 ml, batch no. MKCK0272)]. Glutaraldehyde used as a reference material. The protein crosslinking capability was measured as their reactivity with lysine residues on bovine serum albumin (FIG. 6). In the Protein Crosslinking method, experiments were conducted at 30 mM working concentration of individual carbonyls and at 70° C.
Two IsoFin Products were made using two different types of natural liquid smoke flavors (CS9 and MA45GF) and were compared for total carbonyls and protein crosslinking capability. Among the two, the IsoFin B (CS9 based) was made with 50% CS9 (lot #0218938702, Zesti Smoke, Kerry America Region, Monterey, Tenn.) and 50% Homestyle vinegar flavor (IsoAge Technologies, Springfield, Mo.), whereas the IsoFin B (MA45GF based) was made with 9% MA45GF (lot #0214042186, Red Arrow, Kerry America Region, Manitowoc, Wis.)), 1% 300 grain vinegar (lot #09918209), and 90% Homestyle vinegar flavor. […]

This note sets out measurements from patent US20210309951A1, “USE OF NATURAL FLAVORS AND NATURAL SMOKE FLAVORS TO ENHANCE FUNCTIONALITY OF BUFFERED ORGANIC ACIDS AND METHODS FOR PRODUCING THE SAME” (Kerry Luxembourg S.à.r.I., priority 2020, published 2021).

Sequence of lysine residues on bovine serum albumin (P02769 25-607): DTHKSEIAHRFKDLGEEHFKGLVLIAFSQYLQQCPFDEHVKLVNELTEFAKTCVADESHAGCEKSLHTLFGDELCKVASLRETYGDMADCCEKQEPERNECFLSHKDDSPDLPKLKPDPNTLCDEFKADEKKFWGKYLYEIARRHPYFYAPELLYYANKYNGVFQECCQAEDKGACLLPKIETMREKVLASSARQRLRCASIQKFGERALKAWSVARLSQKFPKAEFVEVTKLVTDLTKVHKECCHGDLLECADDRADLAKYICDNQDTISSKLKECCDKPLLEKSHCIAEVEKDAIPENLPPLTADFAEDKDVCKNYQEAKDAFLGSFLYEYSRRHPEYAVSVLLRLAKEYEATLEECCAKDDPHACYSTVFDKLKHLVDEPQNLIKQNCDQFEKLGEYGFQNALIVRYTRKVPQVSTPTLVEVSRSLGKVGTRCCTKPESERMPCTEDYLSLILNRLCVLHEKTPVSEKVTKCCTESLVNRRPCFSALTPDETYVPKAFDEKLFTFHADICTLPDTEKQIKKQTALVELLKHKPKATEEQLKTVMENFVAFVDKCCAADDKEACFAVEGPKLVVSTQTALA

As for `O=CCO` [glycolaldehyde, Glycolaldehyde], the “reactivity with lysine (protein crosslinking capability)” value is recorded as “maximum reactivity with lysine”.
